Consider seven molecules from PMC12737277, “Ecotoxicity of Nitrated Monoaromatic Hydrocarbons in Aquatic Systems: Emerging Risks from Atmospheric Deposition of Biomass Burning and Anthropogenic Aerosols” (Toxics, 2025).

The target of experiment [1] is T1, Oatp1d1 (Danio rerio, UniProt A0A8M9PU70).
T1 construct: gene slco1d1; full-length transporter stably expressed in Flp-In-293 cells (Flp-In-293-drOatp1d1)
T1 sequence (A0A8M9PU70 1-689): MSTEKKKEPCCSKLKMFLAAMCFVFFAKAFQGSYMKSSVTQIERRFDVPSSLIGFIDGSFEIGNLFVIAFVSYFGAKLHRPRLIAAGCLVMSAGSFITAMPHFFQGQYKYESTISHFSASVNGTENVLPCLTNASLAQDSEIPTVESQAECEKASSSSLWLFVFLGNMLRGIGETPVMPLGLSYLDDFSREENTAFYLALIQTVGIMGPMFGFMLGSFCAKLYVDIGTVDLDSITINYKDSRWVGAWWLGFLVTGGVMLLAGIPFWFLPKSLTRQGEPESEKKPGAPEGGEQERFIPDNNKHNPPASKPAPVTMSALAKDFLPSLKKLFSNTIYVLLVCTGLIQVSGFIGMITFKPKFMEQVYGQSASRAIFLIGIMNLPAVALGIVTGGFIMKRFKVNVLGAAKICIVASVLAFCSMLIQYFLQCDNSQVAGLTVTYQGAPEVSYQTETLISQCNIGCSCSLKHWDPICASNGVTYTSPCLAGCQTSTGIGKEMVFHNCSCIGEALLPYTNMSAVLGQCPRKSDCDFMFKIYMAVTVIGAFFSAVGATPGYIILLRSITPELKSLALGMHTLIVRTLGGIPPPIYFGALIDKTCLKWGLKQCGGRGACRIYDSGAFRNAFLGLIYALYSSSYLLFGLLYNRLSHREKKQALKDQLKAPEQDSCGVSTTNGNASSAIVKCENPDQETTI
The experiment is described as follows: inhibition of Lucifer yellow uptake in transfected cells, fluorescence. It is filed as cell-based.

The target in experiment [2] is T2, Oct1 (Danio rerio, UniProt A0A8N1Z2B5).
T2 construct: gene slc22a2; full-length transporter stably expressed in Flp-In-293 cells (Flp-In-293-drOct1)
T2 sequence (A0A8N1Z2B5 1-562): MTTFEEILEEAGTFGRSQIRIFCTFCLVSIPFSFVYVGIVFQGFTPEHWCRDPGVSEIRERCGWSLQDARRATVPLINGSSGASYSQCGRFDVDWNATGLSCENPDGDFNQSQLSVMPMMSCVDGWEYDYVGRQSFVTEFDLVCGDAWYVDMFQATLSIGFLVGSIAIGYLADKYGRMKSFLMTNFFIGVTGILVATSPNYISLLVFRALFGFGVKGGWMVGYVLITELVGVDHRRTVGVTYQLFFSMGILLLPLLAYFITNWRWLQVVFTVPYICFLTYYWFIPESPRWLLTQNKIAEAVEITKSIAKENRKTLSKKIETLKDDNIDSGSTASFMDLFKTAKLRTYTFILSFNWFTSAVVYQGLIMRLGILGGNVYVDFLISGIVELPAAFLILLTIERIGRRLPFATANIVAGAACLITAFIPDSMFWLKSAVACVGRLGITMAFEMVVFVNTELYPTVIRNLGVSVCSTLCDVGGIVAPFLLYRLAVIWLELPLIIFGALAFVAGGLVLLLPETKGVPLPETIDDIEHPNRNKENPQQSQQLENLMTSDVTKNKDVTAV
Description: inhibition of ASP+ uptake in transfected cells, fluorescence. It is filed as cell-based. As to conditions: 0.5 µM ASP+, mock cells subtracted.

Where [3] appears, read: 50 µM Lucifer yellow, mock cells subtracted.

Where two headings read alike, the source gives them in different places.

For `Cc1c([N+](=O)[O-])ccc(O)c1O` [3M4NC], the IC50 result in experiment [1] (setting [3]) is “all compounds except 4NP showed interaction with LY uptake”; in experiment [2], “particularly 3M5NC, 3M4NC, and 4NC, exhibited the strongest interactions with Oct1”.

With `Cc1cc([N+](=O)[O-])cc(O)c1O` [3M5NC], the IC50 result in experiment [1] (setting [3]) is “all compounds except 4NP showed interaction with LY uptake”; in experiment [2], “particularly 3M5NC, 3M4NC, and 4NC, exhibited the strongest interactions with Oct1”.

Turning to `O=C(O)c1cccc([N+](=O)[O-])c1O` [3NSA], the results for the IC50 result in experiment [1] (setting [3]) and in experiment [2] (read-out: IC50 (converted)) were “all compounds except 4NP showed interaction with LY uptake” and 496 µM, respectively.

Turning to `O=[N+]([O-])c1ccc(O)c(O)c1` [4NC], the IC50 entry in experiment [1] (setting [3]) is “all compounds except 4NP showed interaction with LY uptake”; in experiment [2], “particularly 3M5NC, 3M4NC, and 4NC, exhibited the strongest interactions with Oct1”.

Take `O=[N+]([O-])c1ccc(O)cc1` [4NP]: the IC50 in experiment [1] (read-out: IC50 (converted)) is > 719 µM.

For the molecule `COc1cc([N+](=O)[O-])cc(OC)c1O` [4NS], the figures for the IC50 entry in experiment [1] (setting [3]) and in experiment [2] were “all compounds except 4NP showed interaction with LY uptake” and “All tested NMAHs interfered with ASP+ uptake via Oct1”, respectively.

Take `O=C(O)c1cc([N+](=O)[O-])ccc1O` [5NSA]: the results for the IC50 in experiment [1] (read-out: IC50 (converted)) and in experiment [2] (read-out: IC50 (converted)) were 14.2 µM and 529 µM, respectively.
